Results as given in PMC12679539, “Synthesis and evaluation of nitroheterocyclic aromatic adamantane amides with trypanocidal activity. Part II” (RSC Medicinal Chemistry, 2025).

How the values were obtained:
[1] = test system: bloodstream-form Trypanosoma brucei; experiment: Activity against bloodstream-form Trypanosoma brucei (Alamar Blue growth inhibition); type: cell-based, Trypanosoma brucei (strain 427); conditions: for IC50 / IC90: Trypanosoma brucei, bloodstream form; for IC50: concentration that inhibits growth by 50%, read-out: T. brucei IC50; for IC90: concentration that inhibits growth by 90%, read-out: T. brucei IC90; for S.I. (selectivity index): ratio of IC50 values obtained with L6 cells and T. brucei
Procedure: (§1) Bloodstream form T. brucei (strain 427) were cultured at 37 °C in modified Iscove's medium. Trypanocidal activity was assessed by growing parasites in microtiter plates in the presence of various drug concentrations. […] The plates were incubated for 48 hours at 37 °C and 20 μL Alamar Blue was then added to each well. After an additional overnight incubation, the fluorescence was determined using a Gemini fluorescent plate reader (Molecular Devices). Inhibition of growth was calculated by comparison with control values and IC50 and IC90 values were determined in triplicate using linear regression analysis.

L6 cells = experiment: Cytotoxic activity against rat skeletal myoblast L6 cells (Alamar Blue); type: cell-based; conditions: 120 h, cytotoxicity, 5 days
Procedure: The cytotoxicity against mammalian cells was assessed using microtitre plates. Briefly, L6 cells (a rat skeletal muscle line) were seeded at 1 × 10^4 mL^−1 in 200 μL of RPMI-1640 growth medium (with 10% fetal calf serum) containing 7 different compound concentrations in a range previously established to encompass both the IC50 and IC90 values. The plates were incubated for 5 days at 37 °C and 20 μL Alamar Blue (Biosource Ltd, Wilton, North Yorkshire England.) was then added to each well. After an additional 8 hours incubation, the fluorescence was determined using a Gemini fluorescent plate reader (Molecular Devices). Inhibition of growth was calculated by comparison with control values and IC50 and IC90 values were determined in triplicate using linear regression analysis.

T. cruzi epimastigotes = experiment: Activity against Trypanosoma cruzi epimastigotes (Alamar Blue growth inhibition); type: cell-based, Trypanosoma cruzi (strain CL Brener); conditions: CL Brener
Procedure: as §1, with “Trypanocidal” for “Bloodstream form T. brucei (strain 427) were cultured at 37 °C in modified Iscove's medium. Trypanocidal”, “4 days” for “48 hours”, “28” for “37”, “Blue (Biosource UK Ltd)” for “Blue”, “3 days” for “overnight”

[2] = test system: T. cruzi intracellular amastigotes; experiment: microbe, parasite or virus in culture; type: cell-based, Trypanosoma cruzi CL Brener PpyRE9h:mScarlet; conditions: Trypanosoma cruzi, 120 h; in HeLa cells, 5 days
Procedure: Assays were performed in 96-well black (clear bottom) microtitre plates (Corning Inc.). HeLa ^† cells were seeded at 10^4 per well, incubated for 3 days, and then infected with T. cruzi CL Brener PpyRE9h : mScarlet[25] culture form trypomastigotes (1 : 1 multiplicity of infection). After 16 hours, extracellular parasites were removed by washing in growth medium (×3), test compounds were added, and the plates incubated for 5 days. Fluorescence intensities were then determined using a BMG FLUOstar Omega plate reader (ex 545 nm, em 590 nm), and the data analysed using GraphPad Prism 9.0 software. The values were expressed as IC50/90 ± SD and are the mean of triplicate experiments.

[3] = test system: L. infantum promastigotes; experiment: Activity against Leishmania infantum promastigotes (resazurin assay); type: cell-based, Leishmania infantum (MHOM/MA/67/ITMAP-263); conditions: for IC50: Leishmania infantum, promastigotes, 72 h, 95% CI in brackets
Procedure: Promastigotes from the L. infantum strain (MHOM/MA/67/ITMAP-263) were cultivated in 5 ml of Schneider's insect medium, which was supplemented with 10% heat-inactivated fetal bovine serum (FBS), 200 U ml^−1 of penicillin/streptomycin, 6 μg ml^−1 of phenol red, and 5 mM of HEPES. The cultures were maintained in an incubator at 27 °C and diluted to a concentration of 2 × 10^5 cells per ml every 5 days. For the assays the parasites used were equivalent to late/log with two or three days of culture.
The efficacy of the compounds against L. infantum promastigotes was evaluated using a resazurin-based assay. Parasites were added to 100 μl of serial dilutions of the compounds in supplemented complete medium at a cell density of 5 × 10^5 ml^−1. As a quality control, a dose–response curve with the antileishmanial drug miltefosine was included in all assays. The final volume of each assay was 200 μl per well, and each condition was tested in duplicate. After a 72-hour incubation under specific conditions for each parasite, 20 μl of a 0.5 mM resazurin solution was added, and the plates were incubated for an additional 4 hours under the same conditions. Fluorescence was measured at 544 nm for excitation and 590 nm for emission using a Synergy 2 Multi-Mode Reader (Biotek, Winooski, VT, USA). Results were expressed as the percentage of parasite growth inhibition compared to controls (untreated parasites) and represent the average of at least three independent experiments. The effect was evaluated by determining the IC50 value (the concentration required to inhibit 50% growth), calculated using non-linear regression curves via GraphPad Prism version 8.1.1 for Windows (GraphPad Software, San Diego, CA, USA).

[4] = test system: L. infantum intracellular amastigotes; experiment: Activity against intracellular L. infantum amastigotes in THP-1 derived macrophages (luciferase); type: cell-based, Leishmania infantum (MHOM/MA/67/ITMAP-263); conditions: Leishmania infantum; for inhibition at 10 µM: THP-1, 72 h, read-out: L. infantum (intracellular amastigotes) % of growth inhibition at 10 μM ± ST DEV
Procedure: Leishmania infantum Luciferase-expressing L. infantum (strain MHOM/MA/67/ITMAP-263) axenic amastigotes were cultured in MAA/20 medium at 37 °C with 5% CO2, as described by Sereno et al. 1998.[26] The parasites were maintained in 5 mL T25 ventilated flasks and subcultured every seven days at a concentration of 1 × 10^6 cells per mL.
The activity against intracellular amastigotes of L. infantum was evaluated using a modified method described by Santarem, Tavares, and Cordeiro-da-Silva (2019).[27] THP-1 cells were differentiated into macrophages using PMA, as previously outlined. The differentiated macrophages were then infected with L. infantum axenic amastigotes expressing episomal luciferase at a macrophage-to-amastigote ratio of 1 : 10 for four hours at 37 °C in a 5% CO2 atmosphere. After this incubation, non-internalized parasites were washed away, and various concentrations of test compounds were added in a final volume of 100 μL. A dose–response curve for miltefosine was included in all assays to serve as a quality control. Each experimental condition was tested in quadruplicate. After 72 hours of incubation, the medium was replaced with 100 μL of PBS, and 25 μL of Glo-lysis buffer from the Steady-Glo Luciferase Assay System (Promega, Madison, WI, USA) was added. The plates were then agitated at 100 rpm for 10 minutes at room temperature. Following this, 30 μL of the Steady-Glo reagent (Promega, Madison, WI, USA) was added, and the mixture was incubated for 15 minutes in the dark under the same conditions. A total of 140 μL from each well was transferred to white-bottom 96-well plates, and luminescence intensity was measured using a Synergy 2 Multi-Mode Reader (Biotek, Winooski, VT, USA). The antileishmanial effect was assessed by comparing the results with those from non-treated infected cells. The IC50 value were determined through non-linear regression analysis using GraphPad Prism version 8.1.1 for Windows (GraphPad Software, San Diego, CA, USA). Results represent the average of at least three independent experiments.

| Structure (SMILES) | IC50 [1] | IC90 [1] | S.I. (selectivity index) [1] | IC50 (L6 cells) | IC50 (T. cruzi epimastigotes) | IC90 (T. cruzi epimastigotes) | IC50 [2] | IC90 [2] | IC50 [3] | inhibition at 10 µM [4] | IC50 ([4]; THP-1 derived macrophages, 72 h, 95% CI in brackets, read-out: L. infantum (intracellular amastigotes) IC50 (μM), 95% CI) | SI (promastigotes) CC50/Li IC50 ([3]; THP-1 CC50 / L. infantum promastigote IC50) |
| --- | --- | --- | --- | --- | --- | --- | --- | --- | --- | --- | --- | --- |
| O=C(Cc1ccc(C23CC4CC(CC(C4)C2)C3)cc1)NCCCn1cnc([N+](=O)[O-])n1 [6e, 2-[4-(1-Adamantyl)phenyl]-N-[3-(3-nitro-1H-1,2,4-triazol-1-yl)propyl]acetamide] | 240 ± 10 nM | 400 ± 10 nM | 96 | 23000 ± 3000 nM | 140 ± 10 nM | 270 ± 20 nM | 2480 ± 310 nM | 7080 ± 470 nM | 0.31 µM | 59.5 ± 12% | 6.93 µM |  |
| O=C(CCc1ccc(C23CC4CC(CC(C4)C2)C3)cc1)NCCn1cnc([N+](=O)[O-])n1 [6c, 3-[4-(1-Adamantyl)phenyl]-N-[2-(3-nitro-1H-1,2,4-triazol-1-yl)ethyl]propanamide] | 200 ± 20 nM | 320 ± 10 nM | 114 | 23000 ± 2000 nM | 450 ± 20 nM | 1200 ± 20 nM | 1580 ± 70 nM | 3230 ± 850 nM | 0.42 µM | 47.6 ± 16.3% |  | SI > 238 |
| O=C(Cc1ccc(C23CC4CC(CC(C4)C2)C3)cc1)NCCn1cnc([N+](=O)[O-])n1 [6b, 2-[4-(1-Adamantyl)phenyl]-N-[2-(3-nitro-1H-1,2,4-triazol-1-yl)ethyl]acetamide] | 420 ± 70 nM | 1800 ± 200 nM | 72 | 30000 ± 2000 nM | 200 ± 30 nM | 660 ± 40 nM | 1830 ± 700 nM | 4290 ± 310 nM | 0.49 µM | 50.1 ± 23% |  |  |
